Reference: the supplement of paper PMC10307832

Legend:
Assay in all cases: relative viability (nuclei count vs DMSO), 5 days (fraction); higher = more cells survive
[1] = compound: CC(C)C[C@H](NC(=O)[C@H](CCc1ccccc1)NC(=O)CN1CCOCC1)C(=O)N[C@@H](Cc1ccccc1)C(=O)N[C@@H](CC(C)C)C(=O)[C@@]1(C)CO1 [Carfilzomib] + Cc1nc(NC(=O)N2CCC[C@H]2C(N)=O)sc1-c1ccnc(C(C)(C)C(F)(F)F)c1 [Alpelisib] (partner 2 µM)
How it was run: (§1)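 Nuclei were stained with Hoechst during a one-step fixation (final 0.05% Triton X-100, 1% formaldehyde, 1 ug/ml Hoechst) carried out 5 days after dosing, then counted on 4× images. The cells, lung cancer lines in 1536-well plates, had been dosed by pin tool the day after seeding with one drug alone or a fixed anchor-drug dose plus five library-drug doses (not always all listed) in √10 steps. Relative viability is the nuclei count in treated wells divided by that in vehicle wells, and each value is the median of duplicate plates.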

[2] = compound: C[C@@H](Oc1cc(-c2cnn(C3CCNCC3)c2)cnc1N)c1c(Cl)ccc(F)c1Cl [Crizotinib] + Cc1cc(Nc2cc(N3CCN(C)CC3)nc(Sc3ccc(NC(=O)C4CC4)cc3)n2)n[nH]1 [Tozasertib] (partner 0.1 µM)
How it was run: as §1

[3] = compound: C[C@@H](Oc1cc(-c2cnn(C3CCNCC3)c2)cnc1N)c1c(Cl)ccc(F)c1Cl [Crizotinib] + O=C(c1cc(Cc2n[nH]c(=O)c3ccccc23)ccc1F)N1CCN(C(=O)C2CC2)CC1 [Olaparib] (partner 8 µM)
How it was run: as §1

[4] = compound: O=C(c1cc(Cc2n[nH]c(=O)c3ccccc23)ccc1F)N1CCN(C(=O)C2CC2)CC1 [Olaparib] + C[C@@H](Oc1cc(-c2cnn(C3CCNCC3)c2)cnc1N)c1c(Cl)ccc(F)c1Cl [Crizotinib] (partner 1 µM)
How it was run: as §1

| Cell Line | relative viability ([1]; first compound 0.001 µM) | relative viability ([1]; first compound 0.003162 µM) | relative viability ([1]; first compound 0.01 µM) | relative viability ([1]; first compound 0.03162 µM) | relative viability ([1]; first compound 0.1 µM) | relative viability ([2]; first compound 0.01 µM) | relative viability ([2]; first compound 0.03162 µM) | relative viability ([2]; first compound 0.1 µM) | relative viability ([2]; first compound 1 µM) | relative viability ([3]; first compound 0.01 µM) | relative viability ([3]; first compound 0.03162 µM) | relative viability ([3]; first compound 0.1 µM) | relative viability ([3]; first compound 0.3162 µM) | relative viability ([3]; first compound 1 µM) | relative viability ([4]; first compound 0.08 µM) | relative viability ([4]; first compound 0.253 µM) | relative viability ([4]; first compound 2.53 µM) | relative viability ([4]; first compound 8 µM) | relative viability ([2]; first compound 0.3162 µM) |
| --- | --- | --- | --- | --- | --- | --- | --- | --- | --- | --- | --- | --- | --- | --- | --- | --- | --- | --- | --- |
| NCI-H2087 | 1.13 | 1.25 | 0.83 | 0.0689 | 0.0648 | 0.254 | 0.213 | 0.254 | 0.274 | 0.614 | 0.59 | 0.595 | 0.397 | 0.716 | 1.02 | 0.738 | 0.78 | 0.688 | – |
| BEN | 1.04 | 1.22 | 1.12 | 0.83 | 0.499 | 0.452 | 0.55 | 0.53 | 0.446 | 1.04 | 1.06 | 0.924 | 0.974 | 1.15 | 0.856 | 0.82 | 1 | 0.931 | 0.414 |
| NCI-H1650 | – | – | – | – | – | 0.407 | 0.35 | 0.433 | 0.415 | 0.619 | 0.801 | 0.71 | 0.779 | 0.722 | 1.13 | 0.864 | 1.15 | 0.965 | 0.356 |
| A-427 | 1.07 | 1.07 | 1.06 | 0.699 | 0.1 | 0.17 | 0.199 | 0.215 | 0.212 | 0.745 | 0.777 | 0.783 | – | 0.623 | 0.958 | 0.882 | 0.705 | 0.71 | – |
| CAL-12T | – | 1.38 | 1.3 | 0.619 | 0.105 | 0.331 | 0.254 | 0.384 | 0.3 | 0.811 | 0.794 | 0.743 | 0.709 | 0.723 | 0.917 | 0.575 | 0.95 | 0.572 | – |
| EPLC-272H | 0.884 | 1.03 | 0.83 | 0.141 | 0.106 | 0.204 | 0.26 | 0.385 | 0.306 | 0.624 | 0.729 | 0.805 | 0.974 | 0.837 | 1.06 | 0.751 | 1.07 | 0.864 | 0.232 |
| NCI-H23 | 0.741 | 0.84 | 0.857 | 0.207 | 0.112 | 0.414 | 0.36 | 0.307 | 0.363 | 0.317 | 0.271 | 0.317 | – | 0.388 | 0.673 | 0.444 | 0.492 | 0.274 | – |
| NCI-H1563 | 1.04 | 0.866 | 0.877 | 0.812 | 0.569 | – | – | – | – | – | – | – | – | – | 0.867 | 0.813 | 0.896 | 0.826 | – |
| H3255 | 0.749 | 0.886 | 0.723 | 0.494 | 0.154 | 0.71 | 0.637 | 0.791 | 0.655 | 0.565 | 0.56 | 0.575 | 0.518 | 0.627 | 0.901 | 0.913 | 0.885 | 0.814 | 0.599 |
| NCI-H1355 | 0.753 | 0.767 | 0.737 | 0.584 | 0.139 | 0.568 | 0.545 | 0.555 | 0.598 | 0.714 | 0.715 | 0.797 | 0.622 | 0.728 | 1.17 | 1.01 | 1.02 | 0.923 | 0.515 |
| NCI-H1395 | 0.995 | 1.27 | 1.19 | 0.335 | 0.356 | 0.67 | 0.734 | 0.764 | 0.74 | 0.458 | 0.452 | 0.5 | 0.487 | 0.428 | – | – | – | – | 0.738 |
| Calu-6 | 0.93 | 1.02 | 0.838 | 0.174 | 0.102 | – | – | – | – | 0.606 | 0.571 | 0.522 | 0.624 | 0.549 | 1.08 | 0.662 | 0.74 | 0.573 | – |
| NCI-H2342 | – | – | – | – | – | 0.489 | 0.492 | 0.584 | 0.485 | 0.427 | 0.406 | 0.429 | 0.418 | 0.435 | – | – | – | – | 0.524 |
| NCI-H522 | – | – | – | – | – | 0.509 | 0.492 | 0.503 | 0.471 | 0.658 | 0.585 | 0.736 | 0.747 | 0.604 | – | – | – | – | 0.596 |
| NCI-H1623 | – | – | – | – | – | 0.355 | 0.399 | 0.415 | 0.43 | – | – | – | – | – | – | – | – | – | 0.395 |
| SW 900 | – | – | – | – | – | 0.657 | 0.541 | 0.512 | 0.613 | 0.792 | 0.814 | 0.831 | 1.06 | 0.863 | – | – | – | – | 0.52 |
| NCI-H1299 | 1.1 | 1.01 | 1.06 | 1.02 | 0.257 | – | – | – | – | 0.95 | 0.95 | 0.92 | 0.947 | 0.975 | 1.06 | 0.903 | 0.986 | 0.95 | – |
| ChaGo-K-1 | – | – | – | – | – | 0.24 | 0.222 | 0.222 | 0.246 | 0.422 | 0.413 | 0.418 | 0.297 | 0.444 | 1.26 | 1.06 | 1.31 | 0.862 | 0.209 |
| IA-LM | 0.747 | 0.821 | 0.633 | 0.151 | 0.0147 | – | – | – | – | 0.797 | 0.844 | 0.821 | 0.691 | 0.73 | 1.14 | 0.877 | 0.583 | 0.54 | – |
| EBC-1 | 0.7 | 0.792 | 0.259 | 0.112 | 0.13 | – | – | – | – | 0.563 | 0.664 | 0.643 | 0.182 | 0.154 | 0.206 | 0.178 | 0.203 | 0.186 | – |
| NCI-H1703 | 0.246 | 0.334 | 0.126 | 0.112 | 0.122 | – | – | – | – | 0.389 | 0.757 | 0.528 | 0.414 | 0.463 | 1.07 | 0.734 | 0.903 | 0.522 | – |
